# From PMC5428509, “Irreversible inhibition of BTK kinase by a novel highly selective inhibitor CHMFL-BTK-11 suppresses inflammatory response in rheumatoid arthritis model” (Scientific Reports, 2017)
# What was measured:
# Test in all cases: biochemical
# Design in all cases: KinomeScan competition binding panel (DiscoveRx), percent of control at 1 uM
# Details in all cases: read-out: Percent Control
# BLK = BLK (Homo sapiens, UniProt P51451)
# Procedure, shortened: (§1)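 KinomeScan technology used to profile binding across a panel of 456 kinases and mutants.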
# FLT3(D835H) = FLT3(D835H) (Homo sapiens, UniProt P36888, D835H)
# Procedure, shortened: as §1
# EGFR(T790M) = EGFR(T790M) (Homo sapiens, UniProt P00533, T790M)
# Procedure, shortened: as §1
# BRAF = BRAF (Homo sapiens, UniProt P15056)
# Procedure, shortened: as §1
# SGK2 = SGK2 (Homo sapiens, UniProt Q9HBY8)
# Procedure, shortened: as §1
# EGFR(L858R,T790M) = EGFR(L858R,T790M) (Homo sapiens, UniProt P00533, L858R/T790M)
# Procedure, shortened: as §1
# [1] = target: T1, ABL1(H396P)-nonphosphorylated (Homo sapiens, UniProt P00519, H396P)
# T1 construct: nonphosphorylated
# Procedure, shortened: as §1
# ROCK1 = ROCK1 (Homo sapiens, UniProt Q13464)
# Procedure, shortened: as §1
# PRKG2 = PRKG2 (Homo sapiens, UniProt Q13237)
# Procedure, shortened: as §1
# PKMYT1 = PKMYT1 (Homo sapiens, UniProt Q99640)
# Procedure, shortened: as §1
# MARK1 = MARK1 (Homo sapiens, UniProt Q9P0L2)
# Procedure, shortened: as §1
# PFTK1 = target: T2, PFTK1 (Homo sapiens, UniProt O94921)
# T2 construct: gene CDK14
# Procedure, shortened: as §1
# DYRK2 = DYRK2 (Homo sapiens, UniProt Q92630)
# Procedure, shortened: as §1
# SgK110 = target: T3, SgK110 (Homo sapiens, UniProt P0C264)
# T3 construct: gene SBK3
# Procedure, shortened: as §1
# STK16 = STK16 (Homo sapiens, UniProt O75716)
# Procedure, shortened: as §1
# SRMS = SRMS (Homo sapiens, UniProt Q9H3Y6)
# Procedure, shortened: as §1
# JNK3 = target: T4, JNK3 (Homo sapiens, UniProt P53779)
# T4 construct: gene MAPK10
# Procedure, shortened: as §1
# CSK = CSK (Homo sapiens, UniProt P41240)
# Procedure, shortened: as §1
# ERK4 = target: T5, ERK4 (Homo sapiens, UniProt P31152)
# T5 construct: gene MAPK4
# Procedure, shortened: as §1
# CDKL2 = CDKL2 (Homo sapiens, UniProt Q92772)
# Procedure, shortened: as §1
# [2] = target: T6, JAK1(JH1domain-catalytic) (Homo sapiens, UniProt P23458)
# T6 construct: JH1domain-catalytic
# Procedure, shortened: as §1
# FLT3(K663Q) = FLT3(K663Q) (Homo sapiens, UniProt P36888, K663Q)
# Procedure, shortened: as §1
# DLK = target: T7, DLK (Homo sapiens, UniProt Q12852)
# T7 construct: gene MAP3K12
# Procedure, shortened: as §1
# FGFR3 = FGFR3 (Homo sapiens, UniProt P22607)
# Procedure, shortened: as §1
# FGFR3(G697C) = FGFR3(G697C) (Homo sapiens, UniProt P22607, G697C)
# Procedure, shortened: as §1
# Chain of MARK1 (Q9P0L2 whole entry): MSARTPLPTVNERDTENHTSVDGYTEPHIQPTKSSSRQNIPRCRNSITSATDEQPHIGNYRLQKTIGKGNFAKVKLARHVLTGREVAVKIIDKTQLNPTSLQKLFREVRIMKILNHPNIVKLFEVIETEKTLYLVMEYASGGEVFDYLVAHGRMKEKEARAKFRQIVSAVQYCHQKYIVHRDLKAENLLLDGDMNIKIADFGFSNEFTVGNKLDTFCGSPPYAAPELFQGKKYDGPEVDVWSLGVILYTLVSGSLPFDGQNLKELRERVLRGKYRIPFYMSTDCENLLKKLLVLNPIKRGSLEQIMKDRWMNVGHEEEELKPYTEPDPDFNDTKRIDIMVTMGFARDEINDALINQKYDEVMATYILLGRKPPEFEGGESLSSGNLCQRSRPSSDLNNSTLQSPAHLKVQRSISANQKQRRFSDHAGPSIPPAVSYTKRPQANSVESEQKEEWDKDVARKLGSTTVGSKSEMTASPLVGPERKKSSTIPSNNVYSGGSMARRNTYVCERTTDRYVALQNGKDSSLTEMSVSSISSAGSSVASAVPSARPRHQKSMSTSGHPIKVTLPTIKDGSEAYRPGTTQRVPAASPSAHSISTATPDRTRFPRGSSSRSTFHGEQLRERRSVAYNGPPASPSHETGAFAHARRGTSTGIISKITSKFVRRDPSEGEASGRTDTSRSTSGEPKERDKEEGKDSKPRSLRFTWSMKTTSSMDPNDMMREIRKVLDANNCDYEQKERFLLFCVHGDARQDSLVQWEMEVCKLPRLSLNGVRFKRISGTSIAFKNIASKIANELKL
# T3 sequence (P0C264 whole entry): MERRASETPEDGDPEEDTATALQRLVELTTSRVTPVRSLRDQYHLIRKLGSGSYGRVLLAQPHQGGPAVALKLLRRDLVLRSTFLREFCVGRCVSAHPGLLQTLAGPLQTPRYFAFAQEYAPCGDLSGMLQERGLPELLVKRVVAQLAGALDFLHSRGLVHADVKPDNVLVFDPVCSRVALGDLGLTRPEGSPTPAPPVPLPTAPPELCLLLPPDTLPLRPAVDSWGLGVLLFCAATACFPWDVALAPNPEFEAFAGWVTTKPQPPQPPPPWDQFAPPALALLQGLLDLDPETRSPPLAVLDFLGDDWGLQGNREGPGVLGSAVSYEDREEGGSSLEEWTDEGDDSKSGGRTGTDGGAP
# T6 sequence (P23458 whole entry): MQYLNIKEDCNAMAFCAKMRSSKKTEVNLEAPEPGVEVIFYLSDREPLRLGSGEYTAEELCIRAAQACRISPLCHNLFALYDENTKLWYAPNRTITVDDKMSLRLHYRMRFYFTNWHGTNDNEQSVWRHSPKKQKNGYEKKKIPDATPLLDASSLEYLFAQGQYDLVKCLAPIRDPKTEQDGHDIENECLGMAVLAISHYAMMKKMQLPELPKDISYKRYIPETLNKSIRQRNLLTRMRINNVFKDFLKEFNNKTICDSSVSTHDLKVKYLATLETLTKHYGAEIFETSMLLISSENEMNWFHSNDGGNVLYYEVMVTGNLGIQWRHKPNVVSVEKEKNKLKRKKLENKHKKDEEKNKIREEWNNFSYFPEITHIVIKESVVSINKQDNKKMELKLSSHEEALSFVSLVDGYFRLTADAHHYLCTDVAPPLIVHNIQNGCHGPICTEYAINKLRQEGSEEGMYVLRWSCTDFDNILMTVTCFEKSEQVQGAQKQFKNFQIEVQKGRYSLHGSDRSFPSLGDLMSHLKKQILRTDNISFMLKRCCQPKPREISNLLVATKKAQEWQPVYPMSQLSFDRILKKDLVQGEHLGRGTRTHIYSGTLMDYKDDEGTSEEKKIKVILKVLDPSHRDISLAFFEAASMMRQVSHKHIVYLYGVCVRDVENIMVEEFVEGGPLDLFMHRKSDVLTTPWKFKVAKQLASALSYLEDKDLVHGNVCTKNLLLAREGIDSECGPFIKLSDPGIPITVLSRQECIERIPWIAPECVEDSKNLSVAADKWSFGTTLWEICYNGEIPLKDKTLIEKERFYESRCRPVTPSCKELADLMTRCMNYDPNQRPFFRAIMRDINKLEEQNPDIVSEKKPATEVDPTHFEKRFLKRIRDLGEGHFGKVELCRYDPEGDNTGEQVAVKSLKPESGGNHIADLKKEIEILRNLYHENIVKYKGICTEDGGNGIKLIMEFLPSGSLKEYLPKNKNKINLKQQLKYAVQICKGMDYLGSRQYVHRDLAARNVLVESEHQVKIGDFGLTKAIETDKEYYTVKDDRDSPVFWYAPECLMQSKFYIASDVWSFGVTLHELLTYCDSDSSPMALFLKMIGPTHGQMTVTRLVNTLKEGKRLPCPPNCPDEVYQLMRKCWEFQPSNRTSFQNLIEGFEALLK
# Chain of CDKL2 (Q92772 whole entry): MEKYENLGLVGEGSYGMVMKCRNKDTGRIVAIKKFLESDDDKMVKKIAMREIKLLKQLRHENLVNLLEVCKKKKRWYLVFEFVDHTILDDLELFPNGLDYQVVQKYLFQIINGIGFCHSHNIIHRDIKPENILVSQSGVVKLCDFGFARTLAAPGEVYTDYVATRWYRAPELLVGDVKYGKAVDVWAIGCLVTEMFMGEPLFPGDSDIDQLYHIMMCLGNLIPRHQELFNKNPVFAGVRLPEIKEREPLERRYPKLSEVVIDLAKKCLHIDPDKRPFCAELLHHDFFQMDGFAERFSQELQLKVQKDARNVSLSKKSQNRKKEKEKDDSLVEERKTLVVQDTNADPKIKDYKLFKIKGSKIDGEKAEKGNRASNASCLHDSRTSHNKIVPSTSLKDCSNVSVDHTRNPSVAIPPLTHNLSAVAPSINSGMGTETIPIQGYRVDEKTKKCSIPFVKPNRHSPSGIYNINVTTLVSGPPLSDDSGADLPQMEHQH
# T7 sequence (Q12852 whole entry): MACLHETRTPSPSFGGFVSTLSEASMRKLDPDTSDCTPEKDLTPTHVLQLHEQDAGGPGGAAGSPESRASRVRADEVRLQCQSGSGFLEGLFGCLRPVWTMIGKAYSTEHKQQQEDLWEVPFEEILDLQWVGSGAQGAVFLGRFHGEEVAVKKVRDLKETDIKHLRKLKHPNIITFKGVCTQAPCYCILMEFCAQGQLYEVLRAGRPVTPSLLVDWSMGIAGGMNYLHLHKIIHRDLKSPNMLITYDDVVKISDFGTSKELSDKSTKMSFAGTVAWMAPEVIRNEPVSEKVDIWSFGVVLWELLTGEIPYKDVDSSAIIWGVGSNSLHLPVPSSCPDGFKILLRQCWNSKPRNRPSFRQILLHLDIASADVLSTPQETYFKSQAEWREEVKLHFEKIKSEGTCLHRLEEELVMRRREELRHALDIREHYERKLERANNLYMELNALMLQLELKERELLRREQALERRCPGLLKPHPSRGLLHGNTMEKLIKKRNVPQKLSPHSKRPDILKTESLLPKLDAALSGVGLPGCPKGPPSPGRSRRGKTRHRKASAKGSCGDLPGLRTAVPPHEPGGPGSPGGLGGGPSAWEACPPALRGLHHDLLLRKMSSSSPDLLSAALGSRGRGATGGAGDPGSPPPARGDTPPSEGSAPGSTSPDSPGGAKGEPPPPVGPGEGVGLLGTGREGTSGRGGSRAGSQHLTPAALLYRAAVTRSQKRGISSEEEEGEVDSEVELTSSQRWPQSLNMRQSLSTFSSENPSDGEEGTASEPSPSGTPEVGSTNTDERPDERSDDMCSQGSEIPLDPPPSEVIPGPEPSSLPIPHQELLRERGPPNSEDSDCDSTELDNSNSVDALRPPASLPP
# T2 sequence (O94921 whole entry): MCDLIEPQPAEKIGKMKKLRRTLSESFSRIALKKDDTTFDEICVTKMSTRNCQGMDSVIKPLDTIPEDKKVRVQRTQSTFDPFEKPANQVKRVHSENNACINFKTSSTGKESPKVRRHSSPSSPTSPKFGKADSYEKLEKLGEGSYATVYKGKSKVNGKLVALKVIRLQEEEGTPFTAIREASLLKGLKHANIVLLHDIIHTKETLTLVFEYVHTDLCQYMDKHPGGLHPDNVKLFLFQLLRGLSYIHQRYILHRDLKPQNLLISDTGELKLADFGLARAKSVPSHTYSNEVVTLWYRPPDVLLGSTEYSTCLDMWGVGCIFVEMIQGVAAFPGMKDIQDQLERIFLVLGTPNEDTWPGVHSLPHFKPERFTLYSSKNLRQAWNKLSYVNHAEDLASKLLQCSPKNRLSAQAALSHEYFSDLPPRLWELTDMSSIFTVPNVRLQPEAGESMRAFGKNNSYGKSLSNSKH
# Chain of BRAF (P15056 whole entry): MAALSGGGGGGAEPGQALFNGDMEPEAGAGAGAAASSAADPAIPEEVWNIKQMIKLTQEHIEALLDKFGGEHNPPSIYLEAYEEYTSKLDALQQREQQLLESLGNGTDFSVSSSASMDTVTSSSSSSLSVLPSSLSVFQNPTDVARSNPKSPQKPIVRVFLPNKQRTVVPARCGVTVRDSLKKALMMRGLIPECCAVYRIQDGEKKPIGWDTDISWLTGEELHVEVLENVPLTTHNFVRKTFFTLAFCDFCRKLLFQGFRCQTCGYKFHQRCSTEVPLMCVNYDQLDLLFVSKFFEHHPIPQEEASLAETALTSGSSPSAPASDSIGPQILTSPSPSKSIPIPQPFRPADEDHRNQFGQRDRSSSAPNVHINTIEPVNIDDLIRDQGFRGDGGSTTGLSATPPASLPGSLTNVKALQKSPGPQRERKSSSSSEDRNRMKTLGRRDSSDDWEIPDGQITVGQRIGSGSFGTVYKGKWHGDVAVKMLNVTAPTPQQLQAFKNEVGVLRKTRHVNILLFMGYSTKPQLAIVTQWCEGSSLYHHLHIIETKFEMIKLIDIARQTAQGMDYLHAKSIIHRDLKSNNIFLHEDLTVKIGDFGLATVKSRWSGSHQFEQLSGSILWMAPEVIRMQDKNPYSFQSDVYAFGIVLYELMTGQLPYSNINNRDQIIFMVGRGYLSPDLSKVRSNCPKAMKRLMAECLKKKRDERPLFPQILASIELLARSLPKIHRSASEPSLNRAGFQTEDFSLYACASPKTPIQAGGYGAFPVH
smiles,measurement,setting,value
C=CC(=O)Nc1cc(-n2c(=O)ccc3cnc4ccc(-n5cccn5)cc4c32)ccc1C [CHMFL-BTK-11],remaining binding at 1 µM,BLK,30%
same,remaining binding at 1 µM,FLT3(D835H),100%
same,remaining binding at 1 µM,EGFR(T790M),58%
same,remaining binding at 1 µM,BRAF,93%
same,remaining binding at 1 µM,SGK2,85%
same,remaining binding at 1 µM,"EGFR(L858R,T790M)",42%
same,remaining binding at 1 µM,[1],100%
same,remaining binding at 1 µM,ROCK1,89%
same,remaining binding at 1 µM,PRKG2,98%
same,remaining binding at 1 µM,PKMYT1,94%
same,remaining binding at 1 µM,MARK1,82%
same,remaining binding at 1 µM,PFTK1,100%
same,remaining binding at 1 µM,DYRK2,55%
same,remaining binding at 1 µM,SgK110,90%
same,remaining binding at 1 µM,STK16,91%
same,remaining binding at 1 µM,SRMS,88%
same,remaining binding at 1 µM,JNK3,100%
same,remaining binding at 1 µM,CSK,100%
same,remaining binding at 1 µM,ERK4,96%
same,remaining binding at 1 µM,CDKL2,81%
same,remaining binding at 1 µM,[2],100%
same,remaining binding at 1 µM,FLT3(K663Q),100%
same,remaining binding at 1 µM,DLK,100%
same,remaining binding at 1 µM,FGFR3,89%
same,remaining binding at 1 µM,FGFR3(G697C),100%
